Test results from a melting point compilation (Tetko et al.).

Compound	melting point [°C]
CC(C)P(c1ccccc1)c1ccccc1	40
CCC(CO)(CO)CO	60
C#CCN1C(=O)CN=C(c2ccccc2)c2cc(Cl)ccc21	141
COc1cc(Br)cc(OC)c1OC	78.5
CC(C)(C#N)C#N	31.5
O=C1c2ccccc2C(=O)c2c1ccc1ccccc21	170
OCc1cc(Cl)cc(Cl)c1O	82 to 83
CC(C)CSCC(C)C	-106
Cc1ccc(Cl)c(O)c1	46
Cc1cc(Br)cnc1Cl	40 to 44
CC1CCCCN1CCCOC(=O)c1ccc(Cl)c(Cl)c1 (configuration not stated)	25
C=C1CC2C3CCC4=CC(=O)C=CC4(C)C3C(O)CC2(C)C1(O)C(=O)CO (configuration not stated)	234
CC12CCC(O)CC1CCC1C2C(O)CC2(C)C(C3=CC(=O)OC3)CCC12O (configuration not stated)	280
CC1CCC(C(C)C)C(OC(=O)OC2CC(C)CCC2C(C)C)C1 (configuration not stated)	106
O=C(Nc1ccc([N+](=O)[O-])cc1[N+](=O)[O-])C(C(F)(F)F)(C(F)(F)F)C(F)(F)F	164
COC(=O)c1csc2c(C(F)(F)F)cc(Cl)nc12	110 to 111
CC12CCC3C(C1CCC2=O)C1(CC2CC(=O)CCC23C)OCCO1 (configuration not stated)	205 to 208
Oc1ccc(O)c2ccccc12	188 to 192
CC(=O)C=CC1C(C)=CCCC1(C)C (configuration not stated)	< 25
OCC1=CCN2CCC(O)C12 (configuration not stated)	120
COc1cc(C(=O)Nc2ccc3nn(C4CCCCC4)nc3c2)cc(OC)c1OC	130

Compound	melting point [°C]
NC(CCCCCC(=O)O)C(=O)O (racemic)	223 to 225
CC1(C)C(C=C(Cl)C(F)(F)F)C1C(=O)OC(C#N)c1cccc(Oc2ccccc2)c1 (configuration not stated)	55.6
CC1(c2ccc([N+](=O)[O-])cc2)Nn2c(nnc2C(F)(F)F)S1 (configuration not stated)	255
c1csc(NC2=NCCN2)n1	240 to 242
CC(C)NCC(O)COc1cccc2c1C=CC2 (configuration not stated)	88.5
C=C=O	-151
COC(=O)c1ccccc1S(=O)(=O)NC(=O)N(C)c1nc(C)nc(OC)n1	142
CC1CC(=O)C(=O)C1C (configuration not stated)	64 to 69
CCCCc1ccc(/N=N/c2ccc(O)cc2)cc1	49 to 49.5
CC(=O)C(c1ccccc1)c1ccccc1	61
CNC(=O)ON=CC(C)(C)SC	99
O=[N+]([O-])c1ccc(OCCN2CCOCC2)cc1	84 to 86
CC1(C)OC2(C)CCC1C(=O)OC2(C)C (configuration not stated)	78
N#Cc1ncccc1N1CCCCC1	67 to 69
NC(=O)N=NC(N)=O	195 to 202
O=C(O)C=C(F)C(F)(F)C(F)(F)C(F)(F)C(F)(F)C(F)(F)C(F)(F)C(F)(F)F	105
Cc1cc(C)n2nc(N)c(/N=N/c3cccc([N+](=O)[O-])c3)c2n1	263
CCOC(=O)c1cc2cc(C(F)(F)F)c(C(F)(F)F)cc2c(=O)o1	193
CC(C)(C)OC(=O)N1CCNCC1	47 to 49
O=C(O)C(O)C(F)(F)F (configuration not stated)	69
c1ccc2c(c1)OCCOCCOCCOCCOc1ccccc1OCCO2	48 to 52

Compound	melting point [°C]
CCOC(=O)CNC(=O)c1cn(CC)c2nc(C)ccc2c1=O	198
CCOC(=O)c1c(C)n[nH]c1C	118 to 119
CCOP(=O)(OCC)On1nnc2ccccc2c1=O	74
CCCCCCCCCC=CC(=O)O	17.1
CNC(c1cccc(C(F)(F)F)c1)C(NC)c1cccc(C(F)(F)F)c1 (configuration not stated)	113 to 115
O=C(O)c1scc2c1OCCO2	205 to 206
CC12CCC(C(O)=CC1=O)C2(C)C (configuration not stated)	221
CC(=O)OC1CC2(C)C(CC(O)C3C4(C)CCC(O)C(C)C4CCC32C)C1=C(CCC=C(C)C)C(=O)O (configuration not stated)	192
Nc1ccc(Cl)cc1N	76
CCCCCCCCCCCCCCCCCl	17.9
CC(=O)C1(O)CCC2C3CCC4CC(O)CCC4(C)C3CCC21C (configuration not stated)	265
O=C(OCC(COC(=O)c1cccnc1)(COC(=O)c1cccnc1)COC(=O)c1cccnc1)c1cccnc1	162
CCN(CCO)CCn1c(Cc2ccccc2)nc2c1c(=O)n(C)c(=O)n2C	80
N#CCC[Si](Cl)(Cl)Cl	33 to 34
Cc1nc(/C(C#N)=N/Nc2cccc(C(F)(F)F)c2)sc1/N=N/c1ccc(F)cc1	211
OCCC1CCCCN1 (configuration not stated)	69
Cc1cc(C)n(N=Cc2ccc([N+](=O)[O-])cc2)c(=O)c1C#N	260 to 261
CCOC(=O)c1nn(-c2ccc(C)cc2)c(C)c1C(=O)c1noc(-c2cccc3ccccc23)c1S(=O)(=O)c1ccccc1	173
CCc1c(C)[nH]c2c1C(=O)C(CN1CCOCC1)CC2 (configuration not stated)	180
N#Cc1ccc(N2N=N2)cc1	70
C#CCN1C(=O)COc2cc(F)c(N3C(=O)C4=C(CCCC4)C3=O)cc21	203

The next lines start with the values.

melting point [°C]	Compound
113 to 114	CC(C)(C)c1cnc(C(=O)Nc2cccc(Br)c2)cn1
157	CCOC(=O)C1=C(C)NC(C)=C(C(=O)OCC)C1c1ccccc1
260 to 261	CCOC(=O)c1cn[nH]c1NC(=O)Nc1ccc(Cl)cc1
303 to 305	COc1ccccc1/N=N/c1c(N)nn2c(-c3ccccc3)cc(=O)[nH]c12
91	O=[N+]([O-])c1ncccc1Cl
135	S=C(NCCc1ccccc1)Nc1ccccc1
141	COc1ccc(C(=O)C2=NOC3C(=O)N(c4ccc(F)cc4)C(=O)C23)cc1 (configuration not stated)
89 to 90	O=Cc1ccc(N2CCCC2)nc1
154	CO[C@]12C(=O)CCc3cccc(c31)Oc1ccc3ccccc3c12
91	CCCCC(=O)OCN1C(=O)NC(c2ccccc2)(c2ccccc2)C1=O
189	COc1nc(C)nc(NC(=O)NS(=O)(=O)c2ccccc2OCCCl)n1
149 to 150	CC(C)(C)OC(=O)n1cc(C(=O)O)c2c(Br)cccc21
127	COc1ccc(NC(=O)C(C)=O)cc1
145	Cc1ccnc2c1ccc1cccnc12
67	Cc1ccc2cccc(Cl)c2n1
115	O=C(C=Cc1ccc(OC(=O)c2ccco2)cc1)c1ccccc1
38	FC(F)(F)c1cccnc1Br
203 to 204	CCOC(=O)c1cnn(-c2ccc([N+](=O)[O-])cc2)c1N
53	COC(=O)c1ccc2c(c1)OCO2
235	COc1ccc(-n2nc(C(=O)c3cccs3)s/c2=N/C(=O)c2ccccc2)cc1
228	O=C(O)c1cccnc1C(=O)O
175	O=C(O)c1ccc(C(F)(F)F)c(F)c1

melting point [°C]	Compound
217 to 219	O=C(Nc1ccccc1)OC1CCCCCC1OC(=O)Nc1ccccc1 (configuration not stated)
139 to 140	NC(=NO)c1cccc(Cl)c1Cl
148	CC1(C)CC(=O)C(=NNc2ccccc2)C(=O)C1
204 to 205	CN(C)c1ccc(C=C2N=C(c3ccccc3)OC2=O)cc1
30	O=S(=O)(Cl)c1ccccc1F
65	Cc1ccc(C(c2ccc(C)o2)c2ccccc2N=C=S)o1
34	COc1ccc(CN)c(F)c1F
151 to 155	O=Cc1coc2ccccc2c1=O
93 to 95	Cc1ccc(Oc2cccc(F)c2C#N)cc1
218 to 222	O=C(O)C=Cc1cc([N+](=O)[O-])ccc1Cl
107	COC(=O)NCCc1ccccc1NC(C)=O
25	CNCCCN1c2ccccc2CCc2ccccc21
220	O=C(O)c1cc(-c2ccco2)[nH]n1
41	CCCOc1ccc(C#N)cc1
193	Cn1c(/C(C#N)=N/Nc2ccccc2Cl)nc2ccccc21
40 to 45	CC(=O)COc1c([N+](=O)[O-])ccc(F)c1F
134	COc1ccc(-c2nnc3n2NC(c2ccccc2)S3)cc1 (configuration not stated)
160	O=C(c1ccccc1)c1ccc2n1CCC2C(=O)O (configuration not stated)
193 to 198	O=C(O)/C=C/c1ccc(F)c(F)c1
102	O=[N+]([O-])c1cccc(C=Cc2ccccc2)c1
184	Cc1c(C(=O)O)cccc1[N+](=O)[O-]
88	Nc1cccc(C(F)(F)F)n1

melting point [°C]	Compound
134	NC(=O)CCCNC(=C1C=C(F)C=CC1=O)c1ccc(Cl)cc1
80	CC(=Cc1ccccc1)C(=O)O
149 to 151	O=C(O)CCC(=O)c1ccc2c(c1)OCCCO2
46	OCc1c(F)ccc(F)c1F
290 to 295	N#CC(C#N)=C1CC(c2ccc(Cl)cc2)=C(C#N)C(=N)N1c1ccccc1
197	Cc1cc(O)nc(O)c1
< 20	Brc1ccc(Oc2ccccc2Br)cc1Br
67 to 68	OCc1cccc2[nH]ccc12
20	Oc1ccc(Cl)cc1F
163 to 166	NC(=NO)c1c(Cl)cccc1Cl
53 to 58	COC(=O)Cc1ccc(OCc2ccccc2)cc1
210	FC(F)(F)c1nc2ccccc2[nH]1
38 to 40	CC(O)c1ccccc1C(F)(F)F (configuration not stated)
49.5	COc1cccc2cccnc12
72	N#Cc1cc(I)ccc1F
29 to 31	Cc1ccc2ncoc2c1
232	O=C(O)C(=Cc1ccc(Cl)cc1)C(=Cc1ccc(Cl)cc1)C(=O)O
107	Nc1ccnc(N)c1
102 to 105	CS(=O)(=O)c1ccc(Br)cc1
107	Brc1cnc(N2CCCC2)nc1OCc1ccccc1
